From ChEMBL document CHEMBL3779777, “Novel amalgamation of phthalazine-quinolines as biofilm inhibitors: One-pot synthesis, biological evaluation and in silico ADME prediction with favorable metabolic fate” (Bioorg Med Chem Lett, 2016)
pIC50: −log10 of the molar value. Values after ≈ are worked out from the molar mass of the structure shown. Active and inactive are the calls of the source. No cut-off for these calls is given here.

How the values were obtained:
Candida albicans [1] = test: Antibiofilm activity against Candida albicans after 24 hrs by MTT assay; format: functional, organism-based
Staphylococcus aureus = test: Antibacterial activity against Staphylococcus aureus NCIM-2901 by standard agar method; format: functional
Pseudomonas aeruginosa [2] = test: Antibiofilm activity against Pseudomonas aeruginosa assessed as inhibition of biofilm formation after […] by Field emission scanning electron microscopy; format: functional, organism-based
Candida albicans [3] = test: Antifungal activity against Candida albicans NCIM-3471 by standard agar method; format: functional
Pseudomonas aeruginosa [4] = test: Antibacterial activity against Pseudomonas aeruginosa NCIM-2036 by standard agar method; format: functional
Pseudomonas aeruginosa [5] = test: Antibiofilm activity against Pseudomonas aeruginosa PAO1 after 18 hrs by crystal violet staining based spectroscopy; format: functional, organism-based; details: PAO1, 18 h
Bacillus subtilis = test: Antibacterial activity against Bacillus subtilis NCIM-2063 by standard agar method; format: functional
Candida albicans [6] = test: Antibiofilm activity against Candida albicans assessed as inhibition of biofilm formation after […] by Field emission scanning electron microscopy; format: functional, organism-based

Row | SMILES | pIC50 (Candida albicans [1]) | MIC (Staphylococcus aureus) [µg/mL] | inhibition (Pseudomonas aeruginosa [2]) | MIC (Candida albicans [3]) [µg/mL] | MIC (Pseudomonas aeruginosa [4]) [µg/mL] | pIC50 (Pseudomonas aeruginosa [5]) | MIC (Bacillus subtilis) [µg/mL] | inhibition (Candida albicans [6])
1 | CC1(C)CC(=O)C2=C(C1)n1c(=O)c3ccccc3c(=O)n1C2c1cc2ccccc2nc1Cl (stereo not drawn) | 4.10 | 178 (≈ 390 µM) | Active | 125 (≈ 273 µM) | 45 (≈ 98.3 µM) | 4.52 | 148 (≈ 324 µM) | –
2 | Cc1cccc2cc(C3C4=C(CC(C)(C)CC4=O)n4c(=O)c5ccccc5c(=O)n43)c3nnnn3c12 (stereo not drawn) | 4.21 | 91.5 (≈ 191 µM) | – | 175 (≈ 366 µM) | 84.5 (≈ 177 µM) | 4.21 | 170 (≈ 355 µM) | –
3 | OC(Cn1cncn1)(Cn1cncn1)c1ccc(F)cc1F [FLUCONAZOLE] | 4.40 | – | – | 50 (≈ 163 µM) | – | – | – | –
4 | COc1ccc2c(c1)cc(C1C3=C(CC(C)(C)CC3=O)n3c(=O)c4ccccc4c(=O)n31)c1nnnn12 (stereo not drawn) | 4.09 | 225 (≈ 455 µM) | – | 195 (≈ 394 µM) | 67.5 (≈ 136 µM) | 4.33 | 188 (≈ 379 µM) | –
5 | COc1ccc2nc(Cl)c(C3C4=C(CC(C)(C)CC4=O)n4c(=O)c5ccccc5c(=O)n43)cc2c1 (stereo not drawn) | 4.44 | 77.5 (≈ 159 µM) | – | 55 (≈ 113 µM) | 205 (≈ 420 µM) | 4.13 | 57.5 (≈ 118 µM) | –
6 | CC1(C)CC(=O)C2=C(C1)n1c(=O)c3ccccc3c(=O)n1C2c1cc2ccccc2n2nnnc12 (stereo not drawn) | 4.31 | 85 (≈ 183 µM) | – | 112 (≈ 242 µM) | 68.5 (≈ 147 µM) | 4.18 | 100 (≈ 215 µM) | –
7 | Cc1ccc2cc(C3C4=C(CC(C)(C)CC4=O)n4c(=O)c5ccccc5c(=O)n43)c(Cl)nc2c1 (stereo not drawn) | 4.31 | 70 (≈ 148 µM) | – | 112 (≈ 238 µM) | 185 (≈ 392 µM) | 4.29 | 87.5 (≈ 185 µM) | –
8 | COc1ccc2cc(C3C4=C(CC(C)(C)CC4=O)n4c(=O)c5ccccc5c(=O)n43)c3nnnn3c2c1 (stereo not drawn) | 4.36 | 195 (≈ 394 µM) | – | 220 (≈ 445 µM) | 250 (≈ 506 µM) | 4.14 | 168 (≈ 340 µM) | –
9 | Cc1ccc2c(c1)cc(C1C3=C(CC(C)(C)CC3=O)n3c(=O)c4ccccc4c(=O)n31)c1nnnn12 (stereo not drawn) | 4.15 | 225 (≈ 470 µM) | – | 67.5 (≈ 141 µM) | 67.5 (≈ 141 µM) | 4.19 | 158 (≈ 329 µM) | –
10 | Cc1cccc2cc(C3C4=C(CC(C)(C)CC4=O)n4c(=O)c5ccccc5c(=O)n43)c(Cl)nc12 (stereo not drawn) | 4.43 | 67.5 (≈ 143 µM) | – | 50 (≈ 106 µM) | 120 (≈ 254 µM) | 4.18 | 142 (≈ 302 µM) | –
11 | COc1ccc2cc(C3C4=C(CC(C)(C)CC4=O)n4c(=O)c5ccccc5c(=O)n43)c(Cl)nc2c1 (stereo not drawn) | 4.46 | 102 (≈ 209 µM) | – | 57.5 (≈ 118 µM) | 110 (≈ 225 µM) | 4.23 | 98.5 (≈ 202 µM) | Active
12 | Cc1ccc2cc(C3C4=C(CC(C)(C)CC4=O)n4c(=O)c5ccccc5c(=O)n43)c3nnnn3c2c1 (stereo not drawn) | 4.17 | 112 (≈ 234 µM) | – | 55 (≈ 115 µM) | 102 (≈ 213 µM) | 4.29 | 158 (≈ 329 µM) | –
13 | O=C(O)c1cn(C2CC2)c2cc(N3CCNCC3)c(F)cc2c1=O [CIPROFLOXACIN] | – | – | – | – | 50 (≈ 151 µM) | 4.33 | – | –
14 | Cc1ccc2nc(Cl)c(C3C4=C(CC(C)(C)CC4=O)n4c(=O)c5ccccc5c(=O)n43)cc2c1 (stereo not drawn) | 4.29 | 77.5 (≈ 164 µM) | – | 175 (≈ 371 µM) | 150 (≈ 318 µM) | 4.33 | 158 (≈ 334 µM) | –
